The values below are quoted from earlier work in patent publication US9937184B2 (THEOCORP HOLDING COMPANY, LLC, priority 2013, dated 2018).

The conditions of data set [1]: in vivo.
Data set [2] deals with UMR 106-01 rat obsteoblast-like cells. The following applies: prior art results (Kamagata-Kiyoura 1999).

`Cn1cnc2c1c(=O)[nH]c(=O)n2C` [Theobromine, 3,7-dimethyl-2,3,6,7-tetrahydro-1H-purine-2,6-dione]: the “plasma half-life (t1/2) in the bloodstream” value in data set [1] is given as “six”.
As for `Cn1c(=O)c2c(ncn2C)n(C)c1=O` [caffeine, 1,3,7-trimethylxanthine], in data set [2], the “proliferation of osteoblast-like cells (UMR 106-01)” value is given as “inhibits cell proliferation”.
